This passage reports MIC50, inhibition and Activity results from ChEMBL document CHEMBL5053546, “Peptidomimetic analogues of an Arg-Trp-x-x-Trp motif responsible for interaction of translocase MraY with bacteriophage ϕX174 lysis protein E” (Bioorg Med Chem, 2021).

One assay concerns Pseudomonas fluorescens. As to the kind of experiment: Antibacterial activity against Pseudomonas fluorescence Pf-5 assessed as reduction in bacterial growth incubated overnight by microplate reader analysis. The assay is classed as functional.
The next assay deals with Acinetobacter baumannii. Description: Antibacterial activity against multi drug resistant ESBL positive Acinetobacter baumannii NCTC 13420 assessed as reduction in bacterial growth by CLSI protocol based assay. The assay is classed as functional.
A further assay concerns Pseudomonas aeruginosa. Description: Antibacterial activity against multi drug resistant Pseudomonas aeruginosa NCTC 13437 assessed as reduction in bacterial growth by CLSI protocol based assay. The assay is classed as functional.
Assay [1] deals with Escherichia coli. Description: Inhibition of Escherichia coli MraY overexpressed in Escherichia coli membrane using UDP-MurNAc-L-Ala-gamma-D-Glu-L-Lys(N epsilon-dansyl)-D-Ala-D-Ala and undecaprenyl phosphate as substrate assessed as reduction in lipid II synthesis at 200 uM incubated for 30 mins in presence of [3H]-UDPGlcNAc by liquid scintillation counting analysis relative to control. The assay is classed as cell membranes.

In assay [2] the test system is Escherichia coli. As to the kind of experiment: Antibacterial activity against Escherichia coli K-12 assessed as reduction in bacterial growth incubated overnight by microplate reader analysis. Format: functional.
A further assay relates to Enterococcus faecalis. Description: Antibacterial activity against high level aminoglycoside resistant Enterococcus faecalis ATCC 51299 assessed as reduction in bacterial growth by CLSI protocol based assay. The assay is classed as functional.
A further assay relates to Bacillus subtilis. Description: Antibacterial activity against Bacillus subtilis W23 assessed as reduction in bacterial growth incubated overnight by microplate reader analysis. Format: functional.
A further assay relates to Staphylococcus aureus. Description: Antibacterial activity against Staphylococcus aureus MRSA JE2 USA300 assessed as reduction in bacterial growth by CLSI protocol based assay. The assay is classed as functional.
The test system of a further assay is Enterobacter cloacae. As to the kind of experiment: Antibacterial activity against ESBL positive Enterobacter cloacae NCTC 13405 assessed as reduction in bacterial growth by CLSI protocol based assay. Format: functional.
The test system of another assay is Klebsiella pneumoniae. As to the kind of experiment: Antibacterial activity against ESBL positive Klebsiella pneumoniae ATCC 700603 assessed as reduction in bacterial growth by CLSI protocol based assay.
Assay [3] relates to Escherichia coli. As to the kind of experiment: Inhibition of MraY overexpressed in Escherichia coli membrane using UDP-MurNAc-L-Ala-gamma-D-Glu-L-Lys(N epsilon-dansyl)-D-Ala-D-Ala as substrate at 200 ug/ml by fluoresence enhancement assay. The settings on record: dose 200.0 µg/ml. Format: cell membranes.
Assay [4] concerns Escherichia coli. As to the kind of experiment: Inhibition of MraY overexpressed in Escherichia coli membrane using UDP-MurNAc-L-Ala-gamma-D-Glu-L-Lys(N epsilon-dansyl)-D-Ala-D-Ala as substrate at 200 uM by continuous fluoresence assay. Format: cell membranes.
Assay [5] deals with Escherichia coli. As to the kind of experiment: Inhibition of MraY overexpressed in Escherichia coli membrane using UDP-MurNAc-L-Ala-gamma-D-Glu-L-Lys(N epsilon-dansyl)-D-Ala-D-Ala and undecaprenyl phosphate as substrate assessed as reduction in lipid II synthesis at 200 uM incubated for 30 mins in presence of [3H]-UDPGlcNAc by liquid scintillation counting analysis. The assay is classed as cell membranes.

Assay [6] deals with Escherichia coli. Description: Bacteriocidal activity against Escherichia coli at 250 ug/ml incubated for 1 hr followed by alamar blue addition measured after 2 to 3 hrs by fluorescence based analysis. The assay is classed as functional, organism-based. As to conditions: dose 250.0 µg/ml.
Assay [7] relates to Escherichia coli. As to the kind of experiment: Inhibition of Escherichia coli MraY overexpressed in Escherichia coli membrane using UDP-MurNAc-L-Ala-gamma-D-Glu-L-Lys(N epsilon-dansyl)-D-Ala-D-Ala as substrate at 200 uM by continuous fluoresence assay relative to control. Format: cell membranes.

Values after ≈ are worked out from the molar mass of the structure shown. Active and inactive are the calls of the source. No cut-off for these calls is given here.

For the molecule `CCCCCCC(=O)N(CCc1c[nH]c2ccccc12)c1ccc(C(=O)N[C@@H](CCCCN)C(=O)OC)c(OCCc2c[nH]c3ccccc23)c1`, the MIC50 – broadly, an inhibitory concentration at the 50% level, which refers to growth in some studies and to a panel of isolates in others – was above 125 µg/mL in the assay with Pseudomonas fluorescens; above 256 µg/mL in the assay on Acinetobacter baumannii; above 256 µg/mL in the assay with Pseudomonas aeruginosa; 4 µg/mL (≈ 5.76 µM) with Escherichia coli [2]; 16 µg/mL (≈ 23.1 µM) in the assay on Enterococcus faecalis; 58 µg/mL (≈ 83.6 µM) in the assay with Bacillus subtilis. Further, the MIC50 with Staphylococcus aureus, in the assay on Enterobacter cloacae and with Klebsiella pneumoniae was above 256 µg/mL in each case. The inhibition (usually the drop in the measured response relative to a control, in per cent) in the assay on Escherichia coli [1] is 21%.

Regarding `CCCCCCCCOC(=O)[C@H](Cc1ccccc1)NC(=O)[C@@H](N)CCCNC(=N)N`, the MIC50 in the assay on Pseudomonas fluorescens is 64 µg/mL (≈ 148 µM); with Escherichia coli [2] it was 11 µg/mL (≈ 25.4 µM); in the assay with Bacillus subtilis, 11 µg/mL (≈ 25.4 µM). In addition, the inhibition result with Escherichia coli [3] is “inactive”.

`CCCCCCCCNC(=O)CNC(=O)[C@@H](N)CCCCN`: the figures for the MIC50 in the assay on Pseudomonas fluorescens, in the assay with Escherichia coli [2] and in the assay with Bacillus subtilis were 18 µg/mL (≈ 57.2 µM), 10 µg/mL (≈ 31.8 µM) and 2 µg/mL (≈ 6.36 µM), respectively. Further, the inhibition entry with Escherichia coli [3] is “inactive”.

In the case of `CCCCCCCCOC(=O)[C@H](Cc1c[nH]c2ccccc12)NC(=O)[C@H](CCCNC(=N)N)NC(C)=O`, the MIC50 with Pseudomonas fluorescens is 19 µg/mL (≈ 36.9 µM); in the assay with Escherichia coli [2], 42 µg/mL (≈ 81.6 µM); with Bacillus subtilis, 9 µg/mL (≈ 17.5 µM).

For the molecule `CCCCCCC(=O)Nc1ccc(C(=O)N[C@@H](CCCCN)C(=O)OC)c(OCCc2c[nH]c3ccccc23)c1`, the MIC50 was 56 µg/mL (≈ 102 µM) in the assay on Pseudomonas fluorescens; above 256 µg/mL with Acinetobacter baumannii; above 256 µg/mL in the assay with Pseudomonas aeruginosa; 28 µg/mL (≈ 50.8 µM) in the assay on Escherichia coli [2]; 64 µg/mL (≈ 116 µM) in the assay on Enterococcus faecalis; 28 µg/mL (≈ 50.8 µM) with Bacillus subtilis. Besides, the MIC50 in the assay on Staphylococcus aureus, in the assay with Enterobacter cloacae and in the assay with Klebsiella pneumoniae was above 256 µg/mL each time. The inhibition with Escherichia coli [1] came to 12%.

Consider `CCCCCCCCc1ccc(C(=O)N[C@@H](CCCNC(=N)N)C(=O)O)c(OCCc2c[nH]c3ccccc23)c1`, for which the MIC50 with Pseudomonas fluorescens is above 125 µg/mL; in the assay with Escherichia coli [2], 30 µg/mL (≈ 54.6 µM); in the assay with Bacillus subtilis, 10 µg/mL (≈ 18.2 µM). For the same molecule, the inhibition entry with Escherichia coli [4] and in the assay on Escherichia coli [5] was “inactive” throughout.

Regarding `CCCCCCCCOC(=O)[C@H](Cc1c[nH]c2ccccc12)NC(=O)[C@H](CCCNC(=N)N)NC(=O)OC(C)(C)C`, the values for the MIC50 with Pseudomonas fluorescens, with Escherichia coli [2] and with Bacillus subtilis were 21 µg/mL (≈ 36.7 µM), 12 µg/mL (≈ 21 µM) and 8 µg/mL (≈ 14 µM), respectively.

Turning to `CCCCCCCCOC(=O)[C@H](Cc1ccc(O)cc1)NC(=O)[C@@H](N)CCCNC(=N)N`, the MIC50 in the assay on Pseudomonas fluorescens was determined as 124 µg/mL (≈ 276 µM); in the assay on Escherichia coli [2], 118 µg/mL (≈ 262 µM); with Bacillus subtilis, 25 µg/mL (≈ 55.6 µM). In addition, the inhibition result in the assay on Escherichia coli [3] was “inactive”.

On to `CCCCCCCCOC(=O)[C@H](Cc1c[nH]c2ccccc12)NC(=O)[C@@H](N)CCCCN`, for which the MIC50 was found to be 5 µg/mL (≈ 11.2 µM) in the assay with Pseudomonas fluorescens, 2 µg/mL (≈ 4.5 µM) in the assay on Escherichia coli [2] and 1 µg/mL (≈ 2.25 µM) with Bacillus subtilis. In addition, in the assay with Escherichia coli [6], the outcome was Active. Besides, the inhibition result in the assay on Escherichia coli [3] was “inactive”.

Consider `CCCCCCC(=O)Nc1ccc(C(=O)N[C@@H](CCCCN)C(=O)OC)c(OCc2ccccc2)c1`, for which the MIC50 is 125 µg/mL (≈ 251 µM) in the assay on Pseudomonas fluorescens; above 256 µg/mL with Acinetobacter baumannii; above 256 µg/mL in the assay on Pseudomonas aeruginosa; 8 µg/mL (≈ 16.1 µM) with Escherichia coli [2]; 16 µg/mL (≈ 32.2 µM) with Enterococcus faecalis; 44 µg/mL (≈ 88.4 µM) in the assay with Bacillus subtilis. Also, the MIC50 in the assay on Staphylococcus aureus, with Enterobacter cloacae and in the assay with Klebsiella pneumoniae was above 256 µg/mL throughout. This molecule also gave an inhibition in the assay with Escherichia coli [7] of 36%.
